Each block holds one compound with its values, some of them ahead of it.
Columns and labels:
[1] = biological target: T1, porcine pancreatic lipase (Sus scrofa, UniProt P00591); test: Inhibition of porcine pancreatic lipase activity (p-NPB hydrolysis); type: biochemical
T1 construct: purchased Sigma, St. Louis, Mo., USA
T1 sequence (P00591 1-450): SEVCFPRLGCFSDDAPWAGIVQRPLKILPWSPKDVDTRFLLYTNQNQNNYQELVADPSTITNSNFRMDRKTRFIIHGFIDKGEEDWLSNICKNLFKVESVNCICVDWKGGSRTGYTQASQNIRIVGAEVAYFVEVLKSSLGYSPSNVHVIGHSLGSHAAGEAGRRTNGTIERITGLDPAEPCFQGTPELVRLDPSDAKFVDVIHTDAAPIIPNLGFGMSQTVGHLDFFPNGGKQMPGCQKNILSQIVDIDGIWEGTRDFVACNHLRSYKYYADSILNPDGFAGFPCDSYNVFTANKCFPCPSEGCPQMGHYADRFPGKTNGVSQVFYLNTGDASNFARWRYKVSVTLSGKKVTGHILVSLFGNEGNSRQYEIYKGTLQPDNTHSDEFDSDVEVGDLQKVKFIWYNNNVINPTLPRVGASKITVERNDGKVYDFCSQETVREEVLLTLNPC

[2] = Inhibitory effect on short term absorption of lipid emulsions in animals (triglyceride after oral lipid emulsion); type: in vivo, male wistar rats
[3] = Obesity-preventive effect in high-fat diet-fed mice (body weight, fats, adipocyte size, serum lipids, fatty liver, insulin); type: in vivo, male C57BL/6 mice
[4] = high-fat feed mixed with drug (POCU 1%, Xenical 0.1%), 10 weeks

inhibition at 50 µg/mL ([1]; 50 μg/mL, read-out: Inhibitory effect on pancreatic lipase activity (%)): 32.4 ± 3% | inhibition at 100 µg/mL ([1]; 100 μg/mL, read-out: Inhibitory effect on pancreatic lipase activity (%)): 47.2 ± 1.6% | IC50 ([1]; porcine pancreatic lipase, p-NPB substrate): 543 µM
SMILES: Oc1ccc(/C=C/c2cc(O)cc(O)c2)cc1 [Resveratrol, trans-resveratrol]
Concentration of serum triglyceride ([2]; 10 mg/kg oral with lipid emulsion, 0 h (before administration)): 147.0 ± 4.2 mg/dL | Concentration of serum triglyceride ([2]; 10 mg/kg oral with lipid emulsion, 1 h): 212.5 ± 14.0 mg/dL | Concentration of serum triglyceride ([2]; 10 mg/kg oral with lipid emulsion, 2 h): 219.3 ± 77.3 mg/dL | Concentration of serum triglyceride ([2]; 10 mg/kg oral with lipid emulsion, 3 h): 195.5 ± 25.9 mg/dL | Concentration of serum triglyceride ([2]; 10 mg/kg oral with lipid emulsion, 4 h): 193.2 ± 12.1 mg/dL | Concentration of serum triglyceride ([2]; 50 mg/kg oral with lipid emulsion, 0 h (before administration)): 146.1 ± 1.4 mg/dL | Concentration of serum triglyceride ([2]; 50 mg/kg oral with lipid emulsion, 1 h): 208.3 ± 31.0 mg/dL | Concentration of serum triglyceride ([2]; 50 mg/kg oral with lipid emulsion, 2 h): 228.0 ± 58.4 mg/dL | Concentration of serum triglyceride ([2]; 50 mg/kg oral with lipid emulsion, 3 h): 198.8 ± 62.3 mg/dL | Concentration of serum triglyceride ([2]; 50 mg/kg oral with lipid emulsion, 4 h): 183.7 ± 50.3 mg/dL | Concentration of serum triglyceride ([2]; 250 mg/kg oral with lipid emulsion, 2 h): 228.5 ± 8.4 mg/dL

SMILES: CCCCCCCCCCC[C@@H](C[C@@H]1OC(=O)[C@H]1CCCCCC)OC(=O)[C@H](CC(C)C)NC=O [Xenical, tetrahydrolipstatin (orlistat)]
Concentration of serum triglyceride ([2]; 200 mg/kg oral with lipid emulsion, 0 h (before administration)): 159.6 ± 19.0 mg/dL | Concentration of serum triglyceride ([2]; 200 mg/kg oral with lipid emulsion, 1 h): 133.7 ± 11.3 mg/dL | Concentration of serum triglyceride ([2]; 200 mg/kg oral with lipid emulsion, 2 h): 124.4 ± 18.0 mg/dL | Concentration of serum triglyceride ([2]; 200 mg/kg oral with lipid emulsion, 3 h): 118.1 ± 24.5 mg/dL | Concentration of serum triglyceride ([2]; 200 mg/kg oral with lipid emulsion, 4 h): 120.9 ± 12.5 mg/dL | adipocyte size ([3]; H&E stained adipose tissue, high-fat diet group 125 μm): 75 μm | gonadal fat weight [3, 4]: 0.17 g | perirenal fat weight [3, 4]: 0.04 g | subcutaneous fat weight [3, 4]: 0.14 g | extent of body weight gain ([3]; high-fat feed mixed with drug, 10 weeks, high-fat diet group 10.9 g): 6.1 g

— patent publication US9504725B2, “Compositions and functional foods for treating and preventing obesity using polygonum cuspidatum butanol fraction and ethyl acetate fraction” (KOREA INSTITUTE OF ORIENTAL MEDICINE, priority 2009, dated 2016)
